Results taken from patent US4443448A, “Indane derivatives, pharmaceutical compositions thereof and method of preparation” (priority 1980, dated 1984).
Like-named read-outs stand apart in the source and are kept apart here.

What was measured:
[1] = test system: 3H-DA uptake in striatal synaptosomes; experiment: 3H-DA uptake in striatal synaptosomes in vitro; assay type: biochemical, rats; conditions: rat striatal synaptosomes, 12.5 nM 3H-DA, 37° C., pH 7.4
Experimental: ^3 H-DA uptake in striatal synaptosomes in vitro
0.32 M sucrose containing 1 mM Nialamide
Millipore filters (HAWPO 2500, 0.45μ)
3,4-dihydroxyphenylethylamine[ethyl-1-^3 H(N)]=^3 H-DA spc. act. app. 15 Ci/mmol, New England Nuclear Thomas Tissue Grinder, clearance 0.004-0.006 inch.
Rats are killed by a blow to their head, exsanguinated and their brains removed. The brain is placed on a precooled glassplate, and the two corpura striata are dissected out and gently homogenized in 40 volumes of ice cold 0.32 M sucrose containing 1 mM of nialamide using a hand homogenizer with teflon pestle. The P2 -fraction (synaptosomal fraction) is obtained by centrifugation (600 g, 10 min., 25000 g, 55 min. 4° C.) and suspended in 40 volumes of a modified Krebs-Ringer-phosphate buffer, pH 7.4. To 200 μl of the synaptosomal fraction on ice are added 3700 μl modified Krebs-Ringer-phosphate buffer--containing test compounds. After a preincubation at 37° C. for 5 min. […] The incubation is terminated by filtering the samples under vacuum through Millipore filters with a wash of 5 ml buffer containing 10 μM of unlabelled DA. After solubilizing the filters in 1 ml of cellosolve the radioactivity is determined by liquid scintillation counting after the addition of 10 ml of Insta-Gel. The unspecific binding of ^3 H-DA is determined by incubating control samples on ice instead of at 37° C.
All experiments are performed in triplicate.
The mean of all control samples and ice samples are calculated. […] The IC50-values are determined as the concentrations, at which the uptake are 50 percent of the uptake in control samples-uptake in ice samples.

[2] = in vivo
[3] = in vivo; design: species or system rats; conditions: for Ratio catalep./Amphet.: catalepsy ED50 / amphetamine antagonism ED50; for ED50: rat, in vivo, po, read-out: Catalep. (catalepsy wire mesh, rat, max, ED50)
Experimental: A vertical wire netting (50 cm×49 cm). The meshes (openings) of the netting are square (1 cm×1 cm). The wire diameter is 2 mm.
The animals are labeled and used in groups of five. The test substance is administered orally (p.o) at 4 dose levels selected from the fixed dose scale.
The animals are placed in the middle of the vertical wire netting 60, 120, 180, 240, 300 and 360 minutes after administration of the test compound. The animals are considered cataleptic when they remain immobile during a period of 15 seconds.
This cataleptic reaction is designated +. If the rats are "atonic" and passively slide down the wire mesh they are considered not cataleptic. If the animals climb up and down the wire mesh they are nor cataleptic.
In both situations the designation--is used.

[4] = Mouse grid shock (analgesia); assay type: in vivo; conditions: mice, minimal effective dose, in mg/kg
Experimental: The mouse grid consists of a perspex cage with wire grid bottom and a perspex lid, on which is placed a microphone sensitive to the frequency of a mouse squeak. A stimulator with motordriven potentiometer applies a sequence of square wave impulses of continuously increasing milliamperage to the grid. Frequency of impulses 20 cycles/sec., duration 5 msec. Milliamperage is recorded on a digital amperemeter connected to the stimulator. Activation of the microphone by a mouse-squeak cuts off the current and the final milliamperage appears on the meter.
Five mice are used for each dose level. Each mouse serves as its own control.
Prior to the administration of test substance the animals are placed on the grid one at a time, and the pain threshold is determined by increasing the current intensity until the mouse squeaks. The pain threshold may be read on the milliamperemeter. Fifteen minutes and 30 minutes after administration of test substance the mice are tested again and the pain thresholds recorded.
Analgesic effect is present, when the pain threshold is increased over the pre-dosing value (control value). The results are stated as % increase in pain threshold calculated on the basis of the control value.
The registration can also be done as an on-line procedure. In this case the punching instruction and punching cards will be provided automatically and the results will be registered as a minimal effective dose (MED) determined after van der Waerdens X-test.

[5] = test system: methylphenidate; experiment: Methylphenidate antagonism in mice; assay type: in vivo; conditions: for ED50: Mus musculus, ip
Experimental: Methylphenidate antagonism (ED50 mg/kg i.p.)
(§1) Perspex observation cages without bottom and lid, consisting of 5 sections each measuring 12×25×30 cm.
3×2 mice are used for each dose level. Two or 24 hours after injection of test substance, methylphenidate, 60 mg/kg, is injected s.c. After administration of methylphenidate the mice are placed in the observation cages, 2 in each cage, where they remain for exactly 1 hour. The cages were placed on corrugated paper, the corrugations facing upwards. It is examined whether the mice have been biting the corrugated paper or not. […] If one or more of the control pairs have not been biting, the test has to be repeated on a new set of mice.
The result is stated in fractions: 0/3, 1/3, 2/3 and 3/3 where 0, 1, 2 and 3 are the number of pairs which have not been biting on receipt of the dose in question.

[6] = test system: amphetamine; experiment: Amphetamine antagonism in rats; assay type: in vivo; conditions: for ED50: Rattus norvegicus, po, read-out: Amphetamine antag. ED50 p.o.
Experimental: Amphetamine antagonism (ED50 mg/kg i.p.)
as §1
The test substance is given p.o. in a reasonable dose based on the determined LD50. Two or 24 hours later an intravaneous injection of amphetamine sulphate 13.6 mg/kg (10 mg/kg amphetamine base) is given, after which the rats are placed individually in the cages. The cages are placed on white corrugated paper. Five rats are used for each dose level. Observations are made after 55 minutes and 65 minutes-observation time: 1 minute. The animals are observed for stereotypy (movements of the head, compulsive gnawing). […] If the compound has full antagonistic effect another group of rats is used at a lower dose. […] The result is stated as fractions: 0/5, 1/5, 2/5, 3/5, 4/5 and 5/5, where 0, 1, 2, 3, 4 and 5 indicate the number of rats which have not shown stereotypy at the dose in question. The results are calculated as ED50 in mg/kg.

[7] = rats, p.o., strongest effect within first 6 hours
[8] = read-out: MePh antag. ED50 2 hr i.p., mice, test substance i.p., 2 hr before methylphenidate 60 mg/kg s.c.
[9] = 2 h, read-out: MePh antag. ED50 2 hr i.p., mice, test substance i.p., 2 hr before methylphenidate 60 mg/kg s.c.
[10] = rats, p.o., amphetamine 10 mg/kg base i.v.

Compound	IC50 [1] [µM]	LD50 ([2]; iv) [mg/kg]	Ratio catalep./Amphet. [3]	ED50 [3, 7] [mg/kg]	MED Grid Shock [4]	ED50 [5, 8] [mg/kg]	ED50 [6] [mg/kg]	ED50 [5, 9] [mg/kg]	ED50 [6, 10] [mg/kg]	LD50 ([2]; ip) [mg/kg]	Catalep. (catalepsy wire mesh, rat, max, ED50) [3, 7] [mg/kg]	MePh antag. ED50 2 hr i.p. ([5]; mice, test substance i.p., 2 hr before methylphenidate 60 mg/kg s.c., 120 min) [mg/kg]	Amphetamine antag. ED50 p.o. [6, 10] [mg/kg]
OCCCN1CCN([C@@H]2C[C@H](c3ccc(F)cc3)c3ccc(F)cc32)CC1 (relative stereo) [Lu 14-048]	0.046												
OCCCCN1CCN([C@@H]2C[C@H](c3ccc(Cl)c(Cl)c3)c3ccccc32)CC1 (relative stereo) [Lu 18-120]	0.005												
CN(C)CCCN1c2ccccc2Sc2ccc(Cl)cc21 [chlorpromazine, reference compound]		56.5	1.19	25	5	5.6	21						
OCCCN1CCN([C@@H]2C[C@@H](c3ccc(F)cc3)c3ccc(Cl)cc32)CC1 (relative stereo) [Lu 17-127]		80	1.7	0.5	0.31			0.4	0.3				
OCCN1CCN([C@@H]2C[C@@H](c3ccccc3)c3ccc(C(F)(F)F)cc32)CC1 (relative stereo) [Lu 18-089]		69	0.5	2.7	2.5			2.2	5				
CN1CCN([C@@H]2C[C@H](c3ccc(F)cc3)c3ccc(Cl)cc32)CC1 (relative stereo) [Lu 14-069]		65		> 40	5			5.7	> 20				
O=C(CCCN1CCC(O)(c2ccc(Cl)cc2)CC1)c1ccc(F)cc1 [haloperidol, reference compound]			1.0	0.4	< 5	0.04	0.4			226			
O[C@H]1CC[C@H](CN2CCN(C3CC(c4ccc(F)cc4)c4ccc(F)cc43)CC2)CC1 (relative stereo) [Lu 17-059]		94	> 1.4	> 40	5			4.3	28				
CSc1ccc2c(c1)C(N1CCN(CCCO)CC1)CC2c1ccc(F)cc1 (centres unmarked) [Lu 17-068]		94	0.7	1.3	0.31			0.8	1.8				
CN1CCN(C2CC(c3ccc(F)cc3)c3ccc(F)cc32)CC1 (single isomer, unassigned; (+)) [Lu 17-151, (+) 1-Methyl-4-(3-(4'-fluorophenyl)-6-fluoro-1-indanyl) piperazine]		113	2.7		0.63						16.4	1.0	6.1
OCCCN1CCN(C2CC(c3ccc(F)cc3)c3ccc(C(F)(F)F)cc32)CC1 (centres unmarked) [Lu 18-048]		57	0.4	0.07	1.3			0.12	0.16				
CN1CCN([C@@H]2C[C@@H](c3ccccc3)c3ccc(Cl)cc32)CC1 (relative stereo) [Lu 14-063]		80		> 40	5			29	> 40				
CSc1ccc2c(c1)C(N1CCN(C(C)C)CC1)CC2c1ccc(F)cc1 (centres unmarked) [Lu 17-111]		69	0.9	7.1	1.3			2.3	7.8				
Cc1ccc2c(c1)C(N1CCN(C(C)C)CC1)CC2c1ccc(F)cc1 (centres unmarked) [Lu 17-069]		56	1.2	6.7	0.63			0.8	5.6				
CC(C)c1ccc2c(c1)C(N1CCN(CCO)CC1)CC2c1ccc(F)cc1 (centres unmarked) [Lu 18-020]		57	0.8	7.8	5			4.4	9.4				
OCC(O)CN1CCN(C2CC(c3ccc(F)cc3)c3ccc(C(F)(F)F)cc32)CC1 (centres unmarked) [Lu 18-063]		57	3.2	0.38	1.25			0.4	0.12				
CN1CCN(C2CC(c3ccc(F)cc3)c3ccc(S(C)(=O)=O)cc32)CC1 (centres unmarked) [Lu 18-040]		130	0.8	10	> 20			8.3	12				
OCCN1CCN(CCCN2c3ccccc3Sc3ccc(C(F)(F)F)cc32)CC1 [fluphenazine, reference compound]		98	0.43	0.3	2.5-5			0.04	0.7				
COc1ccc2c(c1)C(N1CCN(CCO)CC1)CC2c1ccc(F)cc1 (centres unmarked) [Lu 18-006]		113	0.7	12	5			8.6	16.6				
CC(C)N1CCN(C2CC(c3ccc(F)cc3)c3ccc(C(F)(F)F)cc32)CC1 (centres unmarked) [Lu 18-050]		57	2.4	0.52	10			0.44	0.22				
CN1CCN([C@@H]2C[C@@H](c3ccc(F)cc3)c3ccc(Cl)cc32)CC1 (relative stereo) [Lu 17-121]		68	0.3	3	0.63			2	10				
OCCN1CCN([C@@H]2C[C@@H](c3ccc(F)cc3)c3cc(F)ccc32)CC1 (relative stereo) [Lu 17-075]		80		> 40	2.5			6	> 40				
